Source: ChEMBL document CHEMBL1201862, “PubChem BioAssay data set” (2004)
Activity calls are given as the source filed them.

Experiments:
[1] = biological target: Dual specificity protein phosphatase 3 (Homo sapiens, UniProt P51452); experiment: inhibition constants for human DUSP3 – biochemical, colorimetric, SAR follow-up (AID 2004)
[2] = biological target: Dual specificity tyrosine-phosphorylation-regulated kinase 1A (Rattus norvegicus, UniProt Q63470); format: biochemical, Homo sapiens
Protein RecA = biological target: T1, Protein RecA (Mycobacterium tuberculosis, UniProt P9WHJ3); experiment: Fluorescence Cell-Free Homogeneous Dose Retest to Identify Inhibitors of RecA-Intein Splicing Activity. [Related pubchem assays (depositor defined):AID2097, AID2223, AID489010, AID492950]; format: functional
T1 sequence (P9WHJ3 whole entry): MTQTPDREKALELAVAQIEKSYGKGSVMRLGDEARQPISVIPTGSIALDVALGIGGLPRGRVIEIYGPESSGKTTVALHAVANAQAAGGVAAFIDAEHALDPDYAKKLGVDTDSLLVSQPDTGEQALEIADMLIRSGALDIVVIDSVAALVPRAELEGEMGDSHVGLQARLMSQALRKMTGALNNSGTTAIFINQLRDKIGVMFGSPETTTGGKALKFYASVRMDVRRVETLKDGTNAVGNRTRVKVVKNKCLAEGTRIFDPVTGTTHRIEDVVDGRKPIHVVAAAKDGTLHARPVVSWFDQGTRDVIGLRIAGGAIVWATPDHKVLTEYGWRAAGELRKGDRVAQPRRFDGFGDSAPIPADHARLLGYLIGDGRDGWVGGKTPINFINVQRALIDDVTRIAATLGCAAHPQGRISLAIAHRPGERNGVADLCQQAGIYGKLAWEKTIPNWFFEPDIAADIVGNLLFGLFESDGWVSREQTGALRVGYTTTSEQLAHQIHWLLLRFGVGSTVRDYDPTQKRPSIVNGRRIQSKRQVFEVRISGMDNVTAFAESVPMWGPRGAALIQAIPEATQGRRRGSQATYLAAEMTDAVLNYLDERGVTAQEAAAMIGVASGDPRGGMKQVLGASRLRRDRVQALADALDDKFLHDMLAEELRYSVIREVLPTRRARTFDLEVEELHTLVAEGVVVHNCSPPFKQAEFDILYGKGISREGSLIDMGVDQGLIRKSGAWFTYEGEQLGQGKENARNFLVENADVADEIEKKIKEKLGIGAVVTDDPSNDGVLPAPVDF

[3] = biological target: Cyclin-dependent kinase 5/CDK5 activator 1 (Homo sapiens, UniProt Q00535); experiment: blockade of human CDK5 activity – biochemical, cherry-picked samples, set 2, dose response (AID 504545)
Chain of Cyclin-dependent kinase 5/CDK5 activator 1 (Q00535 whole entry): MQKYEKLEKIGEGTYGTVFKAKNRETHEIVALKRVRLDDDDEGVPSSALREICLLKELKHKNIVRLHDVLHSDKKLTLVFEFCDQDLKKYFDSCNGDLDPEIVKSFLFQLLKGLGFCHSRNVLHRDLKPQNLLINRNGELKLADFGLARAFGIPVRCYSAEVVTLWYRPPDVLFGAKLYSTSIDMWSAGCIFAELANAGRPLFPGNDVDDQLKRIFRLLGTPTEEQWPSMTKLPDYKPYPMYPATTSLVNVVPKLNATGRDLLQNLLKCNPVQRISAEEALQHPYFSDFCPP
Chain of Cyclin-dependent kinase 5/CDK5 activator 1 (Q15078 whole entry, further chain): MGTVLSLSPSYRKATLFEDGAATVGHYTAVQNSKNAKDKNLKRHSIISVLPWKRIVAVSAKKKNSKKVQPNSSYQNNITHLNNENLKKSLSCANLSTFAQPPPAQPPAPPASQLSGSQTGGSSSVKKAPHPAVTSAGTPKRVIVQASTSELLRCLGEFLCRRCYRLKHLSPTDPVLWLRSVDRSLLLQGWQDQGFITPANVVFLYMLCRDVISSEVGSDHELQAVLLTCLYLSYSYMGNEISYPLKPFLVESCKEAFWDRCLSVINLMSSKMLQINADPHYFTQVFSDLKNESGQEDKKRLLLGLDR

[4] = viability loss in HeLa cells – cytotoxicity control for MgcRacGAP inhibitor project, dose response (AID 624300); format: functional
[5] = NIH-3T3 fibroblast cytotoxicity, dose response, cytotoxicity control, cell-based, fluorescence, Alamar Blue, secondary assay (AID 2327); format: functional;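 also: NIH-3T3 mouse fibroblasts cultured with fluconazole at 8 µg/mL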
[6] = fluconazole-exposed Candida albicans growth modulators – fluorescence, retest, confirmation (AID 2467); format: functional, cell-based
[7] = biological target: T2, Rac GTPase-activating protein 1 (Homo sapiens, UniProt Q9H0H5); experiment: blockers of MgcRacGAP-driven Rac1 GTP hydrolysis – biochemical, ADP Hunter fluorescence, primary and confirmatory, confirmation (AID 624330); format: functional
T2 sequence (Q9H0H5 whole entry): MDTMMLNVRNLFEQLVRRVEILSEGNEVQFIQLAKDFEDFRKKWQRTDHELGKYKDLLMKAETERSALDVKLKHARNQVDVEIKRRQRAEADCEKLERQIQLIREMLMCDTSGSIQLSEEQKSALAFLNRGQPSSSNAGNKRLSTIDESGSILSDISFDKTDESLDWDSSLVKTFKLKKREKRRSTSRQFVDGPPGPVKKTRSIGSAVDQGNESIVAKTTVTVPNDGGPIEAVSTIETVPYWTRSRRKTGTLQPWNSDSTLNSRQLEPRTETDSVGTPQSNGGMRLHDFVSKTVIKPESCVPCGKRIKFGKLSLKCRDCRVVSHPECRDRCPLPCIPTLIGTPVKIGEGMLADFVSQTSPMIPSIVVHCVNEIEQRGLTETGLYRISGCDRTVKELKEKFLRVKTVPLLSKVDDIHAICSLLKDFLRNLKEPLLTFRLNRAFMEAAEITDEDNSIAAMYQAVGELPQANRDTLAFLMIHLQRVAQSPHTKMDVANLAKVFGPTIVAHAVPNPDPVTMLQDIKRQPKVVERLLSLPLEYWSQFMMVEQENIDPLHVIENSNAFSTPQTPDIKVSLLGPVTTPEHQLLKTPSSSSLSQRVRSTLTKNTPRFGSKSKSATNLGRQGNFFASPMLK

cells [8] = format: functional, cell-based
cells [9] = format: functional, cell-based; remark: listed apart in the source
[10] = biological target: T3, Replicative DNA helicase DnaB (Mycobacterium tuberculosis, UniProt P9WMR3); experiment: DnaB intein splicing inhibitors, dose response, biochemical, cell-free fluorescence (AID 449749); format: functional
T3 sequence (P9WMR3 whole entry): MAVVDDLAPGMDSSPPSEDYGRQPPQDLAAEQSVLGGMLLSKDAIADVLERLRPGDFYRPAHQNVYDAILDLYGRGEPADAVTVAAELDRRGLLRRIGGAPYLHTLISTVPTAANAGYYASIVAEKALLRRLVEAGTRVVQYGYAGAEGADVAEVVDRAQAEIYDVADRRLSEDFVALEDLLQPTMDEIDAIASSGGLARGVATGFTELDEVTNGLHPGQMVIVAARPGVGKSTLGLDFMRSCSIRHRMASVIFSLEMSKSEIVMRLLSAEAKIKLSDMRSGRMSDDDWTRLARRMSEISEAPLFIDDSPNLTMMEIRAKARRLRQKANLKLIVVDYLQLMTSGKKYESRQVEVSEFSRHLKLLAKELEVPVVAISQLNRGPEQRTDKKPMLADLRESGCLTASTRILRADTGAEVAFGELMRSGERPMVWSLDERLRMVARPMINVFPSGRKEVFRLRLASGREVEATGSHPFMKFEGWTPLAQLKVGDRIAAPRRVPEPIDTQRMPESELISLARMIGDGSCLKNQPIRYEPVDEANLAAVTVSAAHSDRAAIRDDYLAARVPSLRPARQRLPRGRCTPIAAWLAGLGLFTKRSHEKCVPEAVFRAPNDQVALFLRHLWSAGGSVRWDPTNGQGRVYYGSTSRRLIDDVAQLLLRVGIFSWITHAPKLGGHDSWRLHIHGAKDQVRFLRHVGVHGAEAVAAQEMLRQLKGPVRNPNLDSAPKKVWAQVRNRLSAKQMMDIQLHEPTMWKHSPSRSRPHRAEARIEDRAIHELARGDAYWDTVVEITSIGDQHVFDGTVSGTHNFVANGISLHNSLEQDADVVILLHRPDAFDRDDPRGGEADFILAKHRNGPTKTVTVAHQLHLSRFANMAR

[11] = Luminescence Cell-Based Dose Retest to Confirm Inhibitors of Cancer Stem Cells. [Related pubchem assays (depositor defined):AID2717, AID2721]; format: functional; conditions: Homo sapiens

Chain of Dual specificity protein phosphatase 3 (P51452 whole entry): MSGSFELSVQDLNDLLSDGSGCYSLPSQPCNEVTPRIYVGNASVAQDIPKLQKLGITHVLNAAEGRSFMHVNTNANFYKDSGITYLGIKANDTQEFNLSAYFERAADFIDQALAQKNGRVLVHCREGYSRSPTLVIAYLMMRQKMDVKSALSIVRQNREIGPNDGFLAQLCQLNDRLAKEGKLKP

Row | SMILES | Ki [1] | AC50 [2] | EC50 (Protein RecA) | AC50 [3] | CC50 [4] | EC50 [5] | EC50 [6] | IC50 [7] | EC50 (cells [8]) | EC50 (cells [9]) | AC50 [10] | AC50 [11]
1 | Fc1c(F)c(C(F)(F)F)c(F)c(F)c1Oc1cccc2cccnc12 | 122 µM (inactive) | – | – | – | – | – | – | – | – | – | – | –
2 | Oc1ccc(/C=N/Nc2ccc(C(F)(F)F)cn2)c(O)c1 | – | 5.23 µM (active) | 110 µM (inconclusive) | 11.8 µM (active) | 100 µM (active) | > 150 µM (inactive) | > 38 µM (not active) | 37 µM (active) | 27.7 µM (active) | 44.7 µM (active) | 81.4 µM (active) | 8.01 µM (active)
